Results on seven molecules are retold here after ChEMBL document CHEMBL2029275, “Structure-activity relationship of a series of non peptidic RGD integrin antagonists targeting α5β1: part 2” (Bioorg Med Chem Lett, 2012).

Data set [1] addresses T1, Integrin alpha-5/beta-1 (Homo sapiens, UniProt P05556+P08648). Description: Antagonist activity at integrin alpha5beta1 in human K562 cells assessed as inhibition of cell adhesion. The format is functional, cell-based.
Data set [2] has as its target Integrin alpha-V/beta-3 (Homo sapiens, UniProt P05106+P06756). The data set is described as follows: Antagonist activity at integrin alphaVbeta3 in human A375M cells assessed as cell adhesion to fibrinogen in presence of Mg2+. The format is functional, cell-based.
Data set [3] deals with T1, Integrin alpha-5/beta-1. Description: Antagonist activity at integrin alpha5beta1 in human A375M cells assessed as inhibition of cell adhesion in presence of Mg2+ and MK-0429. The format is functional, cell-based.
For data set [4], the target named is Fibronectin receptor (Integrin alpha-5/beta-1 and alpha-V/beta-3) (Homo sapiens, UniProt P05106+P05556+P06756+P08648). Description: Antagonist activity at integrin alphavbeta3alpha5beta1 in human A375M cells assessed as inhibition of cell adhesion to fibronectin in presence of Mg2+. The format is functional, cell-based.
Data set [5] is filed under the species Rattus norvegicus. The data set is described as follows: Free drug level in rat. The format is ADME, organism-based. The conditions noted are these: in vivo.
Data set [6] deals with T1, Integrin alpha-5/beta-1. Description: Antagonist activity at integrin alpha5beta1 in human K562 cells assessed as inhibition of cell adhesion in presence of human serum albumin. The format is functional, cell-based.
The target in data set [7] is T1, Integrin alpha-5/beta-1. Description: Binding affinity to integrin alpha5beta1. The format is protein-complex assay.
In data set [8] the test system is A375M. Description: Selectivity ratio of IC50 for integrin alphavbeta3alpha5beta1-mediated human A375M cells adhesion to fibronectin in absence of MK-0429 to IC50 for integrin alpha5beta1-mediated human A375M cells adhesion to fibronectin in presence of MK-0429. The format is cell-based.
The species entered for data set [9] is Homo sapiens. Description: Free drug level in human. As to conditions: in vivo. The format is ADME, organism-based.

By IC50 is commonly meant the point on the concentration scale where inhibition reaches its midpoint.

Chain of Integrin alpha-V/beta-3 (P05106 27-788 limits assumed): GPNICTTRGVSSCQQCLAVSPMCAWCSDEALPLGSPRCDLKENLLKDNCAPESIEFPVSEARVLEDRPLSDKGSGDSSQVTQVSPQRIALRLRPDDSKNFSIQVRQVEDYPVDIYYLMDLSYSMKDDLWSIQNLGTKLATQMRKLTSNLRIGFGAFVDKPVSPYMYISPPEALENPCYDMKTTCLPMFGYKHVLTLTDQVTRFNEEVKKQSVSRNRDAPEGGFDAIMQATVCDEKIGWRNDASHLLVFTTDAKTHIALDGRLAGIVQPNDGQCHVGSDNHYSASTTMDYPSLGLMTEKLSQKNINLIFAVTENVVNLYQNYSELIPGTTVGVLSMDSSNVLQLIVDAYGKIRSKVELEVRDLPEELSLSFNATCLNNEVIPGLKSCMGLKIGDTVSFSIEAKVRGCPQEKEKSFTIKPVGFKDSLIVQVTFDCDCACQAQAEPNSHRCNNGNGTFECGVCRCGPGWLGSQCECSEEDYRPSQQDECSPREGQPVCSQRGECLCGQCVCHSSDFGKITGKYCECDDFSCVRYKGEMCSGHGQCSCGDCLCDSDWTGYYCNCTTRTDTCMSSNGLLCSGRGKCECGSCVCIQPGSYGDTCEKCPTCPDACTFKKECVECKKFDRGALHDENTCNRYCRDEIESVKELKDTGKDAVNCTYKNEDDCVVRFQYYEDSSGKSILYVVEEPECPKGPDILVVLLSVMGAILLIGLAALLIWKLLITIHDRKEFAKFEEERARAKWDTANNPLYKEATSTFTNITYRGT
Chain of Integrin alpha-V/beta-3 (P06756 31-889 limits assumed): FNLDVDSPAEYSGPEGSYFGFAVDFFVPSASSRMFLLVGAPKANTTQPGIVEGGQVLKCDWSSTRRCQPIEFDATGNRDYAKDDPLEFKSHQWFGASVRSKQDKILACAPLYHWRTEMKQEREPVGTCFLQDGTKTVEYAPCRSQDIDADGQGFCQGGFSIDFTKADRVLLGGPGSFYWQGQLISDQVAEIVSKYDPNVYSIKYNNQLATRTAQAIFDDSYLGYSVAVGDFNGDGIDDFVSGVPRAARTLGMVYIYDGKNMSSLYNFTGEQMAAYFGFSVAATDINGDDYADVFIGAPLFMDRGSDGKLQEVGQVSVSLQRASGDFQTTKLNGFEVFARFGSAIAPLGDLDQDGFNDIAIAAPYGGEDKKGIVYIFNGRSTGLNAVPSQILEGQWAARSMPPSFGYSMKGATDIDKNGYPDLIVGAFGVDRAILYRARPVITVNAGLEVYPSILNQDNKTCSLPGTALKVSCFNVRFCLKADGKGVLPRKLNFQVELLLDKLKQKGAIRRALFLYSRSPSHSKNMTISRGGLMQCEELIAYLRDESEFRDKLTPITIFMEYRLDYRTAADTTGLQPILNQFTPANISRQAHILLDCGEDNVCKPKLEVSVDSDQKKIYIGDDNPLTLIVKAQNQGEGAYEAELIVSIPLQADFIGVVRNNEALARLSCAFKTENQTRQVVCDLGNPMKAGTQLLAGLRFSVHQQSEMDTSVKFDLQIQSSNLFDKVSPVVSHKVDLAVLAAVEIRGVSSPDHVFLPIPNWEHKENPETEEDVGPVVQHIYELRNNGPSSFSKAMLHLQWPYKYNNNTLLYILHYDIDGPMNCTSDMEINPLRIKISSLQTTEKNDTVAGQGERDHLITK
Chain of Integrin alpha-V/beta-3 (P06756 891-1048 limits assumed): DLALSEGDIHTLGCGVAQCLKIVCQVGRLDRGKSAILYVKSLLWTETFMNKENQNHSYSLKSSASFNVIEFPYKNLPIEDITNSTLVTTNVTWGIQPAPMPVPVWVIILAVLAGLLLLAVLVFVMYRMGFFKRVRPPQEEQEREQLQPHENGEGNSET
T1 sequence (P05556 21-798 limits assumed): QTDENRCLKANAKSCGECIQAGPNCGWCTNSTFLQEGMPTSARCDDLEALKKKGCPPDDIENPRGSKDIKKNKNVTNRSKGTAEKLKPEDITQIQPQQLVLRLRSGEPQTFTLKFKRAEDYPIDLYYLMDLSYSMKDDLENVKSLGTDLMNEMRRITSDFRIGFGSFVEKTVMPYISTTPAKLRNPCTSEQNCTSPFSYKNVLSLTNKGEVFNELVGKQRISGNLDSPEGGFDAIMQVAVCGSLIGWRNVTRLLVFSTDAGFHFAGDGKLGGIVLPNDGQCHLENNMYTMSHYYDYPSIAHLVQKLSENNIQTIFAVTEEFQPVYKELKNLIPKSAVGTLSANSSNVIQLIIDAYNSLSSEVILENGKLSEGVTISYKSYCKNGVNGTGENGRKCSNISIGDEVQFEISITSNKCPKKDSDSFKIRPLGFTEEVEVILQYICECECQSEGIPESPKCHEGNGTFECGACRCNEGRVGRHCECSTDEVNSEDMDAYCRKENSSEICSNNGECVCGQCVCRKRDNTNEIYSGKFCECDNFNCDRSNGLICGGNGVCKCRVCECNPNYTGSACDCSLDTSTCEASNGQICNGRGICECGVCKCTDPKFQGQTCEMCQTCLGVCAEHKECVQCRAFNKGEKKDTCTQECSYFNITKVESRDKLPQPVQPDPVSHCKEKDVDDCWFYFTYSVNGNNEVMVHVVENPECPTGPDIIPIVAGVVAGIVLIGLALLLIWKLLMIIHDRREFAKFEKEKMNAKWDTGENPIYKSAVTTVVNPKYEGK
T1 sequence (P08648 42-894 limits assumed): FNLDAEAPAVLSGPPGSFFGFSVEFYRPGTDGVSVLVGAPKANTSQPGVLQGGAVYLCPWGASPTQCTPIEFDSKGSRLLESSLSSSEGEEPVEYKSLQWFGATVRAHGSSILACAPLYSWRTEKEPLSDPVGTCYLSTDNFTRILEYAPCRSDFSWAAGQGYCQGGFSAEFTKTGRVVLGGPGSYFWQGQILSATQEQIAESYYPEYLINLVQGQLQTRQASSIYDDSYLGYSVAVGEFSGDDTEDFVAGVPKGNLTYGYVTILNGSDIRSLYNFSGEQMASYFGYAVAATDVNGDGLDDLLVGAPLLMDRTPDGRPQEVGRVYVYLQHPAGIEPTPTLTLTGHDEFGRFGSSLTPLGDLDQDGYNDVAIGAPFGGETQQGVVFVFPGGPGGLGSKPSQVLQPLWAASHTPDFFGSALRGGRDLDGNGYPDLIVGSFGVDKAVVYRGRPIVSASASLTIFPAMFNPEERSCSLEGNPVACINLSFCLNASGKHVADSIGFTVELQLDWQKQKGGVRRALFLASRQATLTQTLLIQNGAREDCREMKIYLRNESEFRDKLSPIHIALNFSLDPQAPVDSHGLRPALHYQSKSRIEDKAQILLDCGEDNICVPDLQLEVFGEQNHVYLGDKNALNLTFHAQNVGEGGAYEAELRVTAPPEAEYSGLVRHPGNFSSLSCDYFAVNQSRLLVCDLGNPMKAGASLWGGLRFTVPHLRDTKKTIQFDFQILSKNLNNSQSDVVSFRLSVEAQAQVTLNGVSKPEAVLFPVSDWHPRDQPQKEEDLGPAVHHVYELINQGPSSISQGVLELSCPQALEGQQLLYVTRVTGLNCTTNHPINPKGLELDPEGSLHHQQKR
T1 sequence (P08648 895-1049 limits assumed): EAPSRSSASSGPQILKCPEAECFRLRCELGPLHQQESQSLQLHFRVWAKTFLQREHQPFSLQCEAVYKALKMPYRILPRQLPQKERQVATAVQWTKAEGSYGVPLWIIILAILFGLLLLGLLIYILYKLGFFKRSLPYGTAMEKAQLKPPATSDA

Regarding `CNc1cccc(CCOc2ccc(C[C@H](NC(=O)c3c(F)cccc3Cl)C(=O)O)cc2)n1`, the IC50 in data set [1] is 19 nM; in data set [2], 280 nM; in [3], 160 nM; in data set [4] it was 280 nM; in data set [6] it was 1.5 µM; in data set [7] it was under 1 nM. Moreover, the “Drug uptake(free)” value in [5] is 0.5%; in data set [9] it was 0.6%. In data set [8], the Ratio IC50 is 1.7.
In the case of `CNc1cccc(CCOc2ccc(C[C@H](NC(=O)C3(C)CCCCC3)C(=O)O)cc2)n1`, the IC50 stood at 39 nM in [1]; 830 nM in data set [2]; 480 nM in [3]; 830 nM in [4]; 7.5 µM in [6]. In addition, the “Drug uptake(free)” value in data set [5] is recorded as 0.9%; in data set [9], 0.25%. Further, the Ratio IC50 in data set [8] was found to be 1.8.
As for `CNc1cccc(CCOc2ccc(C[C@H](NC(=O)c3sccc3Cl)C(=O)O)cc2)n1`, the IC50 in data set [1] amounted to 52 nM; in data set [2], 2900 nM; in [3], 2700 nM; in data set [4], 2900 nM; in data set [6], 36 µM. In addition, the “Drug uptake(free)” value in [5] is listed as 0.2%; in [9] it was 0.1%. Also, the Ratio IC50 in data set [8] worked out at 1.1.
Take `CNc1cccc(CCOc2ccc(C[C@H](NC(=O)c3ccc(F)cc3Cl)C(=O)O)cc2)n1`: the IC50 in [1] turned out to be 33 nM; in data set [2], 440 nM; in data set [3], 210 nM; in [4] it was 440 nM; in data set [6], 11 µM; in data set [7], 2 nM. Further, the “Drug uptake(free)” value was 0.3% in data set [5] and 0.2% in data set [9]. Besides, in data set [8], the Ratio IC50 was found to be 2.1.
In the case of `CNc1cccc(CCOc2ccc(C[C@H](NC(=O)c3c(Cl)cncc3Cl)C(=O)O)cc2)n1`, the IC50 in data set [1] is under 4 nM; in data set [2] it was 130 nM; in data set [3], 52 nM; in data set [4], 130 nM; in data set [6], 0.055 µM; in data set [7] it was under 1 nM. Further, the figures for the “Drug uptake(free)” value in data set [5] and in data set [9] were 3.3% and 2.4%, respectively. Also, the Ratio IC50 in data set [8] stood at 2.6.
With `CNc1cccc(CCOc2ccc(C[C@H](NC(=O)c3c(Cl)cccc3Cl)C(=O)O)cc2)n1`, the half-inhibitory concentration (IC50) in data set [1] is 7 nM; in data set [2], 230 nM; in data set [3], 97 nM; in [4] it was 230 nM; in data set [6] it was 0.17 µM; in [7] it was under 1 nM. The results for the “Drug uptake(free)” value in data set [5] and in [9] were 1.1% and 1%, respectively. For the same molecule, the Ratio IC50 in data set [8] amounted to 2.3.
Take `CNc1cccc(CCOc2ccc(C[C@H](NC(=O)c3ccccc3Cl)C(=O)O)cc2)n1`: the IC50 in [1] was 42 nM; in data set [2] it was 520 nM; in data set [3], 240 nM; in [4], 540 nM; in [6], over 26 µM; in data set [7] it was 3 nM. In addition, the “Drug uptake(free)” value in [5] is on record as 0.5%; in data set [9], 0.4%. Further, the Ratio IC50 in data set [8] was determined as 2.2.
